Results reported in patent publication US12171230B2, “Herbicidal compositions” (Bayer Aktiengesellschaft, priority 2018, dated 2024).

What was measured:
Format in all cases: in vivo
Bromus sterilis [1] = assay: Post-emergence herbicidal action against Bromus sterilis
Source text: (§1) The following abbreviations are used in the description and the tables that follow: • g of a.i./ha=grams of active substance (active ingredient) (=100% active compound) per hectare; • The sum total of the effects of the individual applications is reported under E^A; • expected values according to Colby are each reported under E^C.
(§2) The rating period is reported in days after application (DAT).

Galium aparine = assay: Post-emergence herbicidal action against Galium aparine; details: for Herbicidal action: 28 DAT
In short: (§3)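 Post-emergence foliar application: sandy-loam pots, greenhouse, treatment at three-leaf stage, 300–800 l/ha spray volume. Readout is visual % effect at 3–4 weeks, compared with the Colby expected value for mixtures.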

Lolium rigidum [2] = assay: Post-emergence herbicidal action against Lolium rigidum
Source text: as §1, §2

Matricaria inodora = assay: Post-emergence herbicidal action against Matricaria inodora; details: for Herbicidal action: 1 g a.i./ha
Lamium purpureum = assay: Post-emergence herbicidal action against Lamium purpureum; details: for Herbicidal action: 1 g a.i./ha
Experimental: When the observed efficacies exceed the formal sum total of the values of the tests with individual applications, they also exceed the expected value according to Colby, which is calculated using the formula below and is likewise regarded as an indication of synergism (cf. S. R. Colby; in Weeds 15 (1967) p. 20 to 22): E^C=A+B−([…])
Here: • A=efficacy of the active compound (A) in % at an application rate of a g a.i./ha; • B=efficacy of the active compound (B) in % at an application rate of b g a.i./ha; • E^C=expected value of the effect of the combination (A)+(B) in % at the combined application rate a+b g a.i./ha.
Seeds or rhizome pieces of mono- and dicotyledonous weeds are placed in sandy loam in pots, covered with soil and grown in a greenhouse under good growth conditions (temperature, air humidity, water supply). Three weeks after sowing, the test plants were treated at the three-leaf stage with the compositions according to the invention. The compositions according to the invention formulated as spray powders or as emulsion concentrates were sprayed onto the green plant parts in various dosages with an application rate of 300 to 800 l/ha of water (equivalent). After the test plants have been left to stand in the greenhouse under optimal growth conditions for about 3 to 4 weeks, the action of the preparations is scored visually in comparison to untreated controls. The compositions according to the invention also have good post-emergence herbicidal activity against a broad spectrum of economically important gramineous and broadleaf weeds.

Centaurea cyano = assay: Post-emergence herbicidal action against Centaurea cyano
In short: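 Greenhouse pot-grown plants sprayed post-emergence at the three-leaf stage, three weeks after sowing, with spray-powder or emulsion-concentrate formulations at various dosages in 300 to 800 l/ha water on green parts.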

Poa annua = assay: Post-emergence herbicidal action against Poa annua
In short: as §3

Veronica hederifolia = assay: Post-emergence herbicidal action against Veronica hederifolia; details: 0.17 g of a.i./ha
Phalaris minor [3] = assay: Post-emergence herbicidal action against Phalaris minor
[4] = test system: Lolium rigidum (resistant biotype); assay: Post-emergence herbicidal action against Lolium rigidum (resistant biotype)
Alopecurus myosuroides = assay: Post-emergence herbicidal action against Alopecurus myosuroides
Source text: as §1, §2

[5] = test system: Lolium rigidum (resistant biotype); assay: Post-emergence herbicidal action against Lolium rigidum (resistant biotype); details: (Z119) post-emergence; g of a.i./ha: 1, 270, 1 + 270
In short: (§4)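 Dose unit: g a.i./ha (100% active). Scoring in days after application (DAT). E^A = sum of single-application effects; E^C = Colby expected value.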

Phalaris minor [6] = assay: Post-emergence herbicidal action against Phalaris minor; remark: listed apart in the source
Viola tricolor [7] = assay: Post-emergence herbicidal action against Viola tricolor; details: (Z119) post-emergence; g of a.i./ha: 16, 270, 16 + 270
Source text: as §1, §2

Phalaris minor [8] = assay: Post-emergence herbicidal action against Phalaris minor; details: (Z119) post-emergence; for Herbicidal action 28 DAT against Phalaris minor: g of a.i./ha: 16, 4, 270, 90, 30, 16 + 270, 16 + 90, 16 + 30, 4 + 270, 4 + 30
In short: as §4

Viola tricolor [9] = assay: Post-emergence herbicidal action against Viola tricolor
Lolium rigidum [10] = assay: Post-emergence herbicidal action against Lolium rigidum; remark: listed apart in the source
Bromus sterilis [11] = assay: Post-emergence herbicidal action against Bromus sterilis; remark: listed apart in the source

COc1nn(C(=O)NS(=O)(=O)c2c(C(=O)O)csc2C)c(=O)n1C [(B2.68) Thiencarbazone]
Herbicidal action 14 DAT against Bromus sterilis (Bromus sterilis [1]; 0.5 g of a.i./ha): 15% | Herbicidal action 28 DAT against Bromus sterilis (Bromus sterilis [1]; 0.5 g of a.i./ha): 15% | Herbicidal action 14 DAT against Bromus sterilis (Bromus sterilis [1]; 1.5 g of a.i./ha): 20% | Herbicidal action 28 DAT against Bromus sterilis (Bromus sterilis [1]; 1.5 g of a.i./ha): 20% | Herbicidal action 14 DAT against Galium aparine (Galium aparine; 0.17 g of a.i./ha): 60% | Herbicidal action 28 DAT against Galium aparine (Galium aparine; 0.17 g of a.i./ha): 50% | Herbicidal action 14 DAT against Lolium rigidum (Lolium rigidum [2]; 0.5 g of a.i./ha): 60% | Herbicidal action 28 DAT against Lolium rigidum (Lolium rigidum [2]; 0.5 g of a.i./ha): 10% | Herbicidal action 14 DAT against Lolium rigidum (Lolium rigidum [2]; 1.5 g of a.i./ha): 85% | Herbicidal action 28 DAT against Lolium rigidum (Lolium rigidum [2]; 1.5 g of a.i./ha): 50% | Herbicidal action against Matricaria inodora (Matricaria inodora; 14 DAT, 0.17 g of a.i./ha): 15% | Herbicidal action against Matricaria inodora (Matricaria inodora; 14 DAT, 0.5 g of a.i./ha): 50% | Herbicidal action against Matricaria inodora (Matricaria inodora; 28 DAT, 0.17 g of a.i./ha): 0% | Herbicidal action 28 DAT against Lamium purpureum L. (Lamium purpureum; 0.17 g of a.i./ha): 35% | Herbicidal action 14 DAT against Centaurea cyanus (Centaurea cyano; 0.17 g of a.i./ha): 0% | Herbicidal action 28 DAT against Centaurea cyanus (Centaurea cyano; 0.17 g of a.i./ha): 0% | Herbicidal action 28 DAT against Centaurea cyanus (Centaurea cyano; 1.5 g of a.i./ha): 35% | Herbicidal action against Poa annua L. (Poa annua; 14 DAT, 0.5 g of a.i./ha): 10% | Herbicidal action against Poa annua L. (Poa annua; 14 DAT, 1.5 g of a.i./ha): 15% | Herbicidal action against Poa annua L. (Poa annua; 28 DAT, 0.5 g of a.i./ha): 0% | Herbicidal action against Poa annua L. (Poa annua; 28 DAT, 1.5 g of a.i./ha): 25% | Herbicidal action against Veronica hederifolia (Veronica hederifolia; 14 DAT): 70% | Herbicidal action against Veronica hederifolia (Veronica hederifolia; 28 DAT): 70% | Herbicidal action against Phalaris minor (Phalaris minor [3]; 14 DAT, 0.17 g of a.i./ha): 0% | Herbicidal action against Phalaris minor (Phalaris minor [3]; 14 DAT, 0.5 g of a.i./ha): 15% | Herbicidal action against Phalaris minor (Phalaris minor [3]; 14 DAT, 1.5 g of a.i./ha): 10% | Herbicidal action against Phalaris minor (Phalaris minor [3]; 28 DAT, 0.5 g of a.i./ha): 0% | Herbicidal action against Phalaris minor (Phalaris minor [3]; 28 DAT, 1.5 g of a.i./ha): 20% | Herbicidal action against Lolium rigidum (resistant biotype) ([4]; 14 DAT, 0.17 g of a.i./ha): 0% | Herbicidal action against Lolium rigidum (resistant biotype) ([4]; 14 DAT, 0.5 g of a.i./ha): 0% | Herbicidal action against Lolium rigidum (resistant biotype) ([4]; 14 DAT, 1.5 g of a.i./ha): 0% | Herbicidal action against Lolium rigidum (resistant biotype) ([4]; 28 DAT, 0.5 g of a.i./ha): 10% | Herbicidal action against Lolium rigidum (resistant biotype) ([4]; 28 DAT, 1.5 g of a.i./ha): 20% | Herbicidal action 14 DAT against Alopecurus myosuroides (Alopecurus myosuroides; 0.5 g of a.i./ha): 40% | Herbicidal action 14 DAT against Alopecurus myosuroides (Alopecurus myosuroides; 1.5 g of a.i./ha): 35% | Herbicidal action 28 DAT against Alopecurus myosuroides (Alopecurus myosuroides; 1.5 g of a.i./ha): 30%

C=C[C@]1(C(=O)N[C@@H]2C=C(C(=O)OC)OC2)CC(c2cc(F)cc(F)c2)=NO1 [Compound A5, methyl (3R)-3-[[(5S)-3-(3,5-difluorophenyl)-5-vinyl-4H-isoxazole-5-carbonyl]amino]-2,3-dihydrofuran-5-carboxylate]
Herbicidal action 28 DAT against Lolium rigidum (resistant biotype) [5]: 20% | Herbicidal action 28 DAT against Bromus sterilis (Bromus sterilis [1]; (Z119) post-emergence, g of a.i./ha: 1, 270, 1 + 270): 30% | Herbicidal action 14 DAT against Bromus sterilis (Bromus sterilis [1]; (Z119) post-emergence, g of a.i./ha: 1, 270, 90, 1 + 270, 1 + 90): 50% | Herbicidal action (Phalaris minor [6]; 14 DAT, 1 g a.i./ha): 60% | Herbicidal action (Phalaris minor [6]; 14 DAT, 16 g a.i./ha): 85% | Herbicidal action (Phalaris minor [6]; 28 DAT, 1 g a.i./ha): 30% | Herbicidal action (Phalaris minor [6]; 28 DAT, 16 g a.i./ha): 70% | Herbicidal action 14 DAT against Viola tricolor (Viola tricolor [7]): 60% | Herbicidal action 28 DAT against Phalaris minor (Phalaris minor [8]; 4 g of a.i./ha): 60% | Herbicidal action 28 DAT against Phalaris minor (Phalaris minor [8]; 16 g of a.i./ha): 70% | Herbicidal action 14 DAT against Phalaris minor (Phalaris minor [8]; g of a.i./ha: 16, 4, 270, 90, 270, 16 + 270, 16 + 90, 4 + 270): 85% | Herbicidal action (Galium aparine; 1 g a.i./ha): 50% | Herbicidal action (Galium aparine; 16 g a.i./ha): 70% | Herbicidal action 14 DAT against Galium aparine (Galium aparine; (Z119) post-emergence, g of a.i./ha by row: 1, 30, 1 + 30): 60% | Herbicidal action 28 DAT against Lolium rigidum (Lolium rigidum [2]; (Z119) post-emergence, g of a.i./ha: 16, 4, 1, 270, 90, 30, 16 + 270, 16 + 90, 16 + 30, 4 + 270, 4 + 90, 4 + 30, 1 + 270, 1 g of a.i./ha): 30% | Herbicidal action 28 DAT against Lolium rigidum (Lolium rigidum [2]; (Z119) post-emergence, g of a.i./ha: 16, 4, 1, 270, 90, 30, 16 + 270, 16 + 90, 16 + 30, 4 + 270, 4 + 90, 4 + 30, 1 + 270, 4 g of a.i./ha): 50% | Herbicidal action 28 DAT against Lolium rigidum (Lolium rigidum [2]; (Z119) post-emergence, g of a.i./ha: 16, 4, 1, 270, 90, 30, 16 + 270, 16 + 90, 16 + 30, 4 + 270, 4 + 90, 4 + 30, 1 + 270, 16 g of a.i./ha): 60% | Herbicidal action (Matricaria inodora; 14 DAT): 30% | Herbicidal action (Matricaria inodora; 28 DAT): 10% | Herbicidal action (Lamium purpureum; 14 DAT): 60% | Herbicidal action (Lamium purpureum; 28 DAT): 40% | Herbicidal action 14 DAT against Lamium purpureum L. (Lamium purpureum; (Z119) post-emergence, g of a.i./ha by row: 16, 30, 16 + 30): 80% | Herbicidal action (Viola tricolor [9]; 14 DAT, 16 g a.i./ha): 60% | Herbicidal action (Viola tricolor [9]; 28 DAT, 4 g a.i./ha): 40% | Herbicidal action (Viola tricolor [9]; 28 DAT, 16 g a.i./ha): 40% | Herbicidal action (Centaurea cyano; 14 DAT, 1 g a.i./ha): 20% | Herbicidal action (Centaurea cyano; 28 DAT, 16 g a.i./ha): 75% | Herbicidal action 28 DAT against Centaurea cyanus (Centaurea cyano; (Z119) post-emergence, g of a.i./ha: 16, 270, 90, 30, 16 + 270, 16 + 90, 16 + 30): 75% | Herbicidal action (Poa annua; 14 DAT, 1 g a.i./ha): 30% | Herbicidal action (Poa annua; 14 DAT, 16 g a.i./ha): 70% | Herbicidal action (Poa annua; 28 DAT, 1 g a.i./ha): 20% | Herbicidal action (Lolium rigidum [10]; 14 DAT, 1 g a.i./ha): 30% | Herbicidal action (Lolium rigidum [10]; 14 DAT, resistant biotype, 1 g a.i./ha): 30% | Herbicidal action (Lolium rigidum [10]; 14 DAT, resistant biotype, 16 g a.i./ha): 70% | Herbicidal action (Lolium rigidum [10]; 28 DAT, 1 g a.i./ha): 30% | Herbicidal action (Lolium rigidum [10]; 28 DAT, 16 g a.i./ha): 60% | Herbicidal action (Lolium rigidum [10]; 28 DAT, resistant biotype, 1 g a.i./ha): 20% | Herbicidal action 14 DAT against Alopecurus myosuroides (Alopecurus myosuroides; (Z119) post-emergence, g of a.i./ha: 16, 1, 270, 16 + 270, 1 + 270, 1 g of a.i./ha): 50% | Herbicidal action 14 DAT against Alopecurus myosuroides (Alopecurus myosuroides; (Z119) post-emergence, g of a.i./ha: 16, 1, 270, 16 + 270, 1 + 270, 16 g of a.i./ha): 85% | Herbicidal action (Bromus sterilis [11]; 14 DAT, 4 g a.i./ha): 75% | Herbicidal action (Bromus sterilis [11]; 14 DAT, 16 g a.i./ha): 80% | Herbicidal action (Bromus sterilis [11]; 28 DAT, 1 g a.i./ha): 30%
